# Data published in the supplement of paper PMC12698765.
# Structures can show the parent of a compound that is named as a salt. ± gives the standard deviation of the averaged measurements.
# Legend:
# [1] = test system: 409B2 hiPSC (iCRISPR Cas9, FRMD7 editing); assay: cell survival relative to solvent control (fold (ratio to mock)); higher = more surviving cells
# Method: (§1)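 Subset screen of 55 drugs tested at 5 concentrations around the effective screening dose, in 409B2 iCRISPR Cas9 hiPSCs editing FRMD7 with a ssDNA donor. Drugs were applied for 24 h. Viability was read by resazurin and editing outcomes by amplicon sequencing (HDR, NHEJ <2 bp microhomology, MMEJ ≥2 bp microhomology). Values are relative to solvent mock controls; two biological replicates.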
# [2] = test system: 409B2 hiPSC (iCRISPR Cas9, FRMD7 editing); assay: NHEJ-attributed indel frequency relative to solvent control (fold (ratio to mock)); higher = more NHEJ outcomes
# Method: as §1
# [3] = test system: 409B2 hiPSC (iCRISPR Cas9, FRMD7 editing); assay: MMEJ-attributed deletion frequency relative to solvent control (fold (ratio to mock)); higher = more MMEJ outcomes
# Method: as §1
# [4] = test system: 409B2 hiPSC (iCRISPR Cas9, FRMD7 editing); assay: HDR (precise edit) frequency relative to solvent control (fold (ratio to mock)); higher = more homology-directed repair outcomes
# Method: as §1
SMILES,cell survival ([1]; 2000 nM),cell survival ([1]; 5000 nM),cell survival ([1]; 10000 nM),cell survival ([1]; 20000 nM),cell survival ([1]; 50000 nM),NHEJ-attributed indel frequency ([2]; 2000 nM),NHEJ-attributed indel frequency ([2]; 5000 nM),NHEJ-attributed indel frequency ([2]; 10000 nM),NHEJ-attributed indel frequency ([2]; 20000 nM),NHEJ-attributed indel frequency ([2]; 50000 nM),MMEJ-attributed deletion frequency ([3]; 2000 nM),MMEJ-attributed deletion frequency ([3]; 5000 nM),MMEJ-attributed deletion frequency ([3]; 10000 nM),MMEJ-attributed deletion frequency ([3]; 20000 nM),MMEJ-attributed deletion frequency ([3]; 50000 nM),HDR ([4]; 2000 nM),HDR ([4]; 5000 nM),HDR ([4]; 10000 nM),HDR ([4]; 20000 nM),HDR ([4]; 50000 nM),further results
CNCC[C@H](Oc1cccc2ccccc12)c1cccs1 [Duloxetine HCl] (in DMSO),0.92,1.24,1.18,0.796,0.0121,0.932 ± 0.027,0.986 ± 0.0019,0.998 ± 0.025,1.029 ± 0.0059,0.517 ± 0.45,1.09 ± 0.25,1.14 ± 0.069,1.36 ± 0.053,1.86 ± 0.036,1.42 ± 0.81,1.02 ± 0.13,1.14 ± 0.024,1.02 ± 0.0038,0.88 ± 0.06,0.33 ± 0.35,
C[C@]12CC[C@@H]3c4ccc(O)cc4CC[C@H]3[C@@H]1C[C@@H](O)[C@@H]2O [Estriol] (in DMSO),0.929,1.19,1.05,0.994,1.15,1.02 ± 0.015,0.988 ± 0.043,0.987 ± 0.043,0.9898 ± 0.0067,0.986 ± 0.047,0.923 ± 0.2,0.996 ± 0.019,1 ± 0.038,1.04 ± 0.014,0.971 ± 0.029,0.971 ± 0.021,1.12 ± 0.049,1.07 ± 0.019,1.11 ± 0.019,1.15 ± 0.078,cell survival ([1]; 20 nM): 0.994; cell survival ([1]; 50 nM): 1.11; cell survival ([1]; 100 nM): 0.907; cell survival ([1]; 200 nM): 1.02; cell survival ([1]; 500 nM): 0.944; NHEJ-attributed indel frequency ([2]; 20 nM): 0.994 ± 0.029; NHEJ-attributed indel frequency ([2]; 50 nM): 1.01 ± 0.0089; NHEJ-attributed indel frequency ([2]; 100 nM): 1.01 ± 0.039; NHEJ-attributed indel frequency ([2]; 200 nM): 1.01 ± 0.018; NHEJ-attributed indel frequency ([2]; 500 nM): 1.02 ± 0.025; MMEJ-attributed deletion frequency ([3]; 20 nM): 0.961 ± 0.14; MMEJ-attributed deletion frequency ([3]; 50 nM): 0.901 ± 0.016; MMEJ-attributed deletion frequency ([3]; 100 nM): 0.923 ± 0.1; MMEJ-attributed deletion frequency ([3]; 200 nM): 0.917 ± 0.12; MMEJ-attributed deletion frequency ([3]; 500 nM): 0.932 ± 0.1; HDR ([4]; 20 nM): 1.18 ± 0.038; HDR ([4]; 50 nM): 1.03 ± 0.06; HDR ([4]; 100 nM): 1.02 ± 0.079; HDR ([4]; 200 nM): 1.04 ± 0.094; HDR ([4]; 500 nM): 1.08 ± 0.14
CO[C@@H]1[C@H](OC(=O)/C=C/C=C/C=C/C=C/C(=O)O)CC[C@]2(CO2)[C@H]1[C@@]1(C)O[C@@H]1CC=C(C)C [Fumagillin] (in DMSO),,,,,,,,,,,,,,,,,,,,,cell survival ([1]; 20 nM): 0.264; cell survival ([1]; 50 nM): 0.134; cell survival ([1]; 100 nM): 0.0522; cell survival ([1]; 200 nM): 0.0162; cell survival ([1]; 500 nM): 0.0244; NHEJ-attributed indel frequency ([2]; 20 nM): 0.883 ± 0.019; NHEJ-attributed indel frequency ([2]; 50 nM): 0.767 ± 0.041; NHEJ-attributed indel frequency ([2]; 100 nM): 0.723 ± 0.14; NHEJ-attributed indel frequency ([2]; 200 nM): 0.604 ± 0.14; NHEJ-attributed indel frequency ([2]; 500 nM): 0.537 ± 0.071; MMEJ-attributed deletion frequency ([3]; 20 nM): 0.749 ± 0.1; MMEJ-attributed deletion frequency ([3]; 50 nM): 0.7745 ± 0.0004; MMEJ-attributed deletion frequency ([3]; 100 nM): 0.739 ± 0.15; MMEJ-attributed deletion frequency ([3]; 200 nM): 0.705 ± 0.15; MMEJ-attributed deletion frequency ([3]; 500 nM): 0.656 ± 0.17; HDR ([4]; 20 nM): 1.073 ± 0.0017; HDR ([4]; 50 nM): 0.886 ± 0.049; HDR ([4]; 100 nM): 0.791 ± 0.23; HDR ([4]; 200 nM): 0.512 ± 0.27; HDR ([4]; 500 nM): 0.471 ± 0.18
CS(=O)(=O)N1CCN(Cc2cc3nc(-c4cccc5[nH]ncc45)nc(N4CCOCC4)c3s2)CC1 [GDC-0941] (in DMSO),,,,,,,,,,,,,,,,,,,,,cell survival ([1]; 20 nM): 0.924; cell survival ([1]; 50 nM): 0.877; cell survival ([1]; 100 nM): 0.7; cell survival ([1]; 200 nM): 0.444; cell survival ([1]; 500 nM): 0.15; NHEJ-attributed indel frequency ([2]; 20 nM): 0.978 ± 0.0067; NHEJ-attributed indel frequency ([2]; 50 nM): 0.99142 ± 0.00057; NHEJ-attributed indel frequency ([2]; 100 nM): 0.945 ± 0.042; NHEJ-attributed indel frequency ([2]; 200 nM): 0.94 ± 0.041; NHEJ-attributed indel frequency ([2]; 500 nM): 0.86 ± 0.063; MMEJ-attributed deletion frequency ([3]; 20 nM): 1.02 ± 0.14; MMEJ-attributed deletion frequency ([3]; 50 nM): 0.875 ± 0.054; MMEJ-attributed deletion frequency ([3]; 100 nM): 0.874 ± 0.016; MMEJ-attributed deletion frequency ([3]; 200 nM): 0.926 ± 0.2; MMEJ-attributed deletion frequency ([3]; 500 nM): 0.887 ± 0.078; HDR ([4]; 20 nM): 1.15 ± 0.048; HDR ([4]; 50 nM): 1.08 ± 0.0031; HDR ([4]; 100 nM): 1.08 ± 0.075; HDR ([4]; 200 nM): 1.14 ± 0.076; HDR ([4]; 500 nM): 1.06 ± 0.19
CN(C)C(=O)Oc1cccc([N+](C)(C)C)c1 [Hodostin] (in DMSO),0.969,1.28,1,1.14,1.29,0.983 ± 0.013,0.992 ± 0.024,0.996 ± 0.04,0.9928 ± 0.0066,0.992 ± 0.029,0.943 ± 0.1,0.965 ± 0.13,0.922 ± 0.014,0.944 ± 0.085,1.05 ± 0.12,1.13 ± 0.068,1.1 ± 0.087,1.05 ± 0.15,1.15 ± 0.044,1.24 ± 0.054,
OC[C@H]1O[C@@H](c2ccc(F)c(Cc3cc4ccccc4s3)c2)[C@H](O)[C@@H](O)[C@@H]1O [Ipragliflozin] (in DMSO),,,,,,,,,,,,,,,,,,,,,cell survival ([1]; 20 nM): 0.951; cell survival ([1]; 50 nM): 1.11; cell survival ([1]; 100 nM): 0.915; cell survival ([1]; 200 nM): 1.12; cell survival ([1]; 500 nM): 0.95; NHEJ-attributed indel frequency ([2]; 20 nM): 1 ± 0.038; NHEJ-attributed indel frequency ([2]; 50 nM): 0.9974 ± 0.0051; NHEJ-attributed indel frequency ([2]; 100 nM): 1.005 ± 0.0019; NHEJ-attributed indel frequency ([2]; 200 nM): 1.01 ± 0.012; NHEJ-attributed indel frequency ([2]; 500 nM): 0.995 ± 0.032; MMEJ-attributed deletion frequency ([3]; 20 nM): 0.982 ± 0.092; MMEJ-attributed deletion frequency ([3]; 50 nM): 0.909 ± 0.09; MMEJ-attributed deletion frequency ([3]; 100 nM): 0.913 ± 0.041; MMEJ-attributed deletion frequency ([3]; 200 nM): 0.94 ± 0.11; MMEJ-attributed deletion frequency ([3]; 500 nM): 1.07 ± 0.08; HDR ([4]; 20 nM): 1.09 ± 0.029; HDR ([4]; 50 nM): 1 ± 0.037; HDR ([4]; 100 nM): 0.984 ± 0.064; HDR ([4]; 200 nM): 1.02 ± 0.07; HDR ([4]; 500 nM): 1.05 ± 0.067
CCc1c2c(nc3ccc(OC(=O)N4CCC(N5CCCCC5)CC4)cc13)-c1cc3c(c(=O)n1C2)COC(=O)[C@]3(O)CC [Irinotecan HCl Trihydrate] (in DMSO),0.00496,0.00337,,,,0.439 ± 0.01,0.434 ± 0.028,,,,0.541 ± 0.16,0.575 ± 0.049,,,,0.16683 ± 7e-05,0.149 ± 0.016,,,,cell survival ([1]; 200 nM): 0.618; cell survival ([1]; 500 nM): 0.158; cell survival ([1]; 1000 nM): 0.0216; NHEJ-attributed indel frequency ([2]; 200 nM): 0.914 ± 0.024; NHEJ-attributed indel frequency ([2]; 500 nM): 0.694 ± 0.021; NHEJ-attributed indel frequency ([2]; 1000 nM): 0.617 ± 0.21; MMEJ-attributed deletion frequency ([3]; 200 nM): 0.853 ± 0.043; MMEJ-attributed deletion frequency ([3]; 500 nM): 0.688 ± 0.013; MMEJ-attributed deletion frequency ([3]; 1000 nM): 0.566 ± 0.31; HDR ([4]; 200 nM): 1.097 ± 0.0069; HDR ([4]; 500 nM): 0.954 ± 0.14; HDR ([4]; 1000 nM): 0.662 ± 0.22
O=[N+]([O-])O[C@@H]1CO[C@H]2[C@@H]1OC[C@@H]2O [Isosorbide 5-mononitrate] (in DMSO),0.898,1.39,1.19,1.15,1.36,0.899 ± 0.036,0.9787 ± 0.0053,0.967 ± 0.016,0.988 ± 0.033,0.983 ± 0.013,0.904 ± 0.25,0.993 ± 0.058,0.983 ± 0.057,0.994 ± 0.012,0.955 ± 0.048,1.08 ± 0.25,1.14 ± 0.04,1.14 ± 0.051,1.07 ± 0.14,1.22 ± 0.11,
CC(CCc1ccccc1)NCC(O)c1ccc(O)c(C(N)=O)c1 (stereo not given) [Labetalol HCl] (in DMSO),0.953,1.39,1.08,1.14,1.15,0.988 ± 0.029,1.02 ± 0.0051,1.05 ± 0.018,1.093 ± 0.0077,1.0876 ± 0.00036,1.04 ± 0.027,0.975 ± 0.13,1.13 ± 0.15,1.08 ± 0.034,1.25 ± 0.049,1.05 ± 0.063,0.878 ± 0.059,0.834 ± 0.025,0.757 ± 0.049,0.756 ± 0.028,
CCN1CCC[C@H]1CNC(=O)c1cc(S(N)(=O)=O)ccc1OC [Levosulpiride] (in DMSO),1.06,1.32,1.26,1.18,1.33,0.98 ± 0.013,0.9952 ± 0.0031,0.9818 ± 0.0064,1 ± 0.012,0.978 ± 0.038,1.07 ± 0.1,1.06 ± 0.0093,0.994 ± 0.19,1 ± 0.04,1 ± 0.04,1.05 ± 0.047,1.07 ± 0.081,1.13 ± 0.019,1.06 ± 0.13,1.09 ± 0.081,
CN(C)C(=O)C(CCN1CCC(O)(c2ccc(Cl)cc2)CC1)(c1ccccc1)c1ccccc1 [Loperamide HCl] (in DMSO),0.928,1.24,0.607,-0.00906,-0.00864,0.923 ± 0.077,0.9735 ± 0.0074,0.928 ± 0.06,0.324 ± 0.053,0.186 ± 0.085,1.31 ± 0.23,1.1 ± 0.094,0.998 ± 0.032,0.465 ± 0.16,0.224 ± 0.07,0.9969 ± 0.0053,1.01 ± 0.044,0.873 ± 0.035,0.136 ± 0.067,0.138 ± 0.11,
